This is an account of results in US20240010634A1, “PYRIMIDINYL SULFONAMIDES AS INHIBITORS OF ACK1/TNK2 TYROSINE KINASE” (H. LEE MOFFITT CANCER CENTER AND RESEARCH INSTITUTE, INC., priority 2020, published 2024).

Assay [1] has as its target T1, ACK1 (Homo sapiens (Human), UniProt Q07912). Nature of the assay: ACK1 IC50 (Table 1, method not described). Format: biochemical.
Assay [2] deals with T1, ACK1. Nature of the assay: Reaction Biology 33P Hotspot assay. Format: biochemical.
Assay [3] relates to cell line which is dependent upon ACK1. As to conditions: read-out: IC50, growth of a cell line dependent upon ACK1; cited from earlier work.
For assay [4], the target named is T1, ACK1. As to conditions: cited from earlier work.
The test system of a further assay is ACK1 autophosphorylation. As to conditions: heregulin-stimulated LNCaP cells; cited from earlier work.
For assay [5], the system named is AR phosphorylation of Tyr-267. As to conditions: heregulin-stimulated LNCaP cells; cited from earlier work.

T1 sequence (Q07912 whole entry): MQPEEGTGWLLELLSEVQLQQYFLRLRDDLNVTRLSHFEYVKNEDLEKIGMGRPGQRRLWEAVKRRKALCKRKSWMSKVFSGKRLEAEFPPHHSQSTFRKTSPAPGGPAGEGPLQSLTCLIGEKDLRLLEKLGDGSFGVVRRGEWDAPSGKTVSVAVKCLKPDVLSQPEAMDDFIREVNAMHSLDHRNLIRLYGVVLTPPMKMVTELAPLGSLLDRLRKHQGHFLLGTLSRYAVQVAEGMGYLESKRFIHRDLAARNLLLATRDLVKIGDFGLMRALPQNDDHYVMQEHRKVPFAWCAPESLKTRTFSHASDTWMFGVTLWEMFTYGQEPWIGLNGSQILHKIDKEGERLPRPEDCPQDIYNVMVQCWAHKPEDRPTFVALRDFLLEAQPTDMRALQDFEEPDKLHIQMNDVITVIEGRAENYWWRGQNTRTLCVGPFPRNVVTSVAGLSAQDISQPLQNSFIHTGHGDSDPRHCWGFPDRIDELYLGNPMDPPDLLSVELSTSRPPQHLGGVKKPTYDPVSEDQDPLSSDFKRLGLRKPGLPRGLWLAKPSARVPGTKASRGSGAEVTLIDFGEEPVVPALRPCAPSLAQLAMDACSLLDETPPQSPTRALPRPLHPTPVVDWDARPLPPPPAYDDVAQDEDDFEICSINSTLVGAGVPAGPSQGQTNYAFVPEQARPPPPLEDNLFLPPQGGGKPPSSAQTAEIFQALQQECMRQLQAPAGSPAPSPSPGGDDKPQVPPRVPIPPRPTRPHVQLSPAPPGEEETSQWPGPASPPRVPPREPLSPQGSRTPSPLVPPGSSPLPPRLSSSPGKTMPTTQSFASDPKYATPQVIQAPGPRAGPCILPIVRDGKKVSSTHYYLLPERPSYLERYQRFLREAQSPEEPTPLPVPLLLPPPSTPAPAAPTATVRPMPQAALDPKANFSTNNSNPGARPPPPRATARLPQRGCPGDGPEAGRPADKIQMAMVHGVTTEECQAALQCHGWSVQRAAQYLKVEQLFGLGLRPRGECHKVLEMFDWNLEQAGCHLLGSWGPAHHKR

In general, IC50 refers to the concentration that gives 50% inhibition. At ACK1 [1], `COc1cc(N2CCN(C)CC2)ccc1Nc1ncc(C)c(Nc2ccc(Cl)c(NS(=O)(=O)C(C)(C)C)c2)n1` [N-(2-chloro-5-((2-((2-methoxy-4-(4-methylpiperazin-1-yl)phenyl)amino)-5-methylpyrimidin-4-yl)amino)phenyl)-2-methylpropane-2-sulfonamide] showed a half-inhibitory concentration (IC50) of 33.2 nM.
For the molecule `COc1cc(N2CCN(C)CC2)ccc1Nc1ncc(C)c(Nc2cccc(NS(=O)(=O)C(C)(C)C)c2)n1` [N-(3-((2-((2-methoxy-4-(4-methylpiperazin-1-yl)phenyl)amino)-5-methylpyrimidin-4-yl)amino)phenyl)-2-methylpropane-2-sulfonamide], the IC50 on ACK1 [2] is 21.9 nM; against ACK1 [1], 34.5 nM.
What is called Ki is a measure of affinity in units of concentration, obtained from inhibition or displacement. As to `CN(C)CCOc1ccc(-c2oc3ncnc(NCC4SCCS4)c3c2-c2ccccc2)cc1` [Compound 1c], the IC50 in assay [3] was 5 nM. In addition, the Ki on ACK1 [4] is 0.3 nM.
`Cc1nc(Nc2ncc(C(=O)Nc3c(C)cccc3Cl)s2)cc(N2CCN(CCO)CC2)n1` [Dasatinib]: the IC50 (with ACK1 autophosphorylation; in assay [5]) was under 5 nM each time.
